Reference: patent US11352340B2, “Pyridine and pyridimine compounds as PI3K-gamma inhibitors” (Incyte Corporation, priority 2016, dated 2022)
Where a name gives a salt, the structure may show the parent alone.

Tests used:
[1] = target: PI3Kγ (p110γ) Recombinant Human Protein (Homo sapiens (Human), UniProt P48736); experiment: PI3K-γ Scintillation Proximity Assay; format: biochemical; settings: read-out: PI3K-gamma SPA IC50
Excerpt: Example B. PI3K-γ Scintillation Proximity Assay
(§1) [γ-^33P]ATP (10 mCi/mL) and Wheat Germ Agglutinin (WGA) YSi SPA Scintillation Beads was purchased from Perkin-Elmer (Waltham, Mass.). Lipid kinase substrate, D-myo-Phosphatidylinositol 4,5-bisphosphate (PtdIns(4,5)P2)D (+)-sn-1,2-di-O-octanoylglyceryl, 3-O-phospho linked (PIP2), CAS 204858-53-7, was purchased from Echelon Biosciences (Salt Lake City, Utah). PI3Kγ (p110γ) Recombinant Human Protein was purchased from Life technology (Grand Island, N.Y.). ATP, MgCl2, DTT, EDTA, MOPS and CHAPS were purchased from Sigma-Aldrich (St. Louis, Mo.).
(§2) The kinase reaction was conducted in polystyrene 384-well Greiner Bio-one white plate from Thermo Fisher Scientific in a final volume of 25 μL. Inhibitors were first diluted serially in DMSO and added to the plate wells before the addition of other reaction components. The final concentration of DMSO in the assay was 2%. The PI3Kγ assay was carried out at room temperature in 20 mM MOPS, pH 6.7, 10 mM MgCl2, 5 mM DTT and CHAPS 0.03%. Reactions were initiated by the addition of ATP, the final reaction mixture consisted of 20 μM PIP2, 2 μM ATP, 0.5 μCi [γ-^33P] ATP, 13 nM PI3Kγ. Reactions were incubated for 120 min and terminated by the addition of 40 μL SPA beads suspended in quench buffer: 163 mM potassium phosphate pH 7.8, 20% glycerol, 25 mM EDTA. The final concentration of SPA beads is 1.0 mg/mL. After the plate sealing, plates were shaken overnight at room temperature and centrifuged at 1500 rpm for 10 min, the radioactivity of the product was determined by scintillation counting on Topcount (Perkin-Elmer). IC50 determination was performed by fitting the curve of percent of the solvent control activity versus the log of the inhibitor concentration using the GraphPad Prism 6.0 software.

[2] = target: PI3Kδ (p110δ/p85α) Recombinant Human Protein (Homo sapiens (Human), UniProt O00329); experiment: PI3Kδ Scintillation Proximity Assay; format: biochemical; settings: read-out: PI3K-delta SPA IC50
Excerpt: Example C. PI3Kδ Scintillation Proximity Assay
as §1, with “PI3Kδ (p110δ/p85α)” for “PI3Kγ (p110γ)”, “Eurofins (St Charles, Mo.).” for “Life technology (Grand Island, N.Y.).”
as §2, with “PI3Kδ” for “PI3Kγ”, “3.4” for “13”, “PI3Kδ.” for “PI3Kγ.”

Sequence of PI3Kγ (p110γ) Recombinant Human Protein (P48736 whole entry): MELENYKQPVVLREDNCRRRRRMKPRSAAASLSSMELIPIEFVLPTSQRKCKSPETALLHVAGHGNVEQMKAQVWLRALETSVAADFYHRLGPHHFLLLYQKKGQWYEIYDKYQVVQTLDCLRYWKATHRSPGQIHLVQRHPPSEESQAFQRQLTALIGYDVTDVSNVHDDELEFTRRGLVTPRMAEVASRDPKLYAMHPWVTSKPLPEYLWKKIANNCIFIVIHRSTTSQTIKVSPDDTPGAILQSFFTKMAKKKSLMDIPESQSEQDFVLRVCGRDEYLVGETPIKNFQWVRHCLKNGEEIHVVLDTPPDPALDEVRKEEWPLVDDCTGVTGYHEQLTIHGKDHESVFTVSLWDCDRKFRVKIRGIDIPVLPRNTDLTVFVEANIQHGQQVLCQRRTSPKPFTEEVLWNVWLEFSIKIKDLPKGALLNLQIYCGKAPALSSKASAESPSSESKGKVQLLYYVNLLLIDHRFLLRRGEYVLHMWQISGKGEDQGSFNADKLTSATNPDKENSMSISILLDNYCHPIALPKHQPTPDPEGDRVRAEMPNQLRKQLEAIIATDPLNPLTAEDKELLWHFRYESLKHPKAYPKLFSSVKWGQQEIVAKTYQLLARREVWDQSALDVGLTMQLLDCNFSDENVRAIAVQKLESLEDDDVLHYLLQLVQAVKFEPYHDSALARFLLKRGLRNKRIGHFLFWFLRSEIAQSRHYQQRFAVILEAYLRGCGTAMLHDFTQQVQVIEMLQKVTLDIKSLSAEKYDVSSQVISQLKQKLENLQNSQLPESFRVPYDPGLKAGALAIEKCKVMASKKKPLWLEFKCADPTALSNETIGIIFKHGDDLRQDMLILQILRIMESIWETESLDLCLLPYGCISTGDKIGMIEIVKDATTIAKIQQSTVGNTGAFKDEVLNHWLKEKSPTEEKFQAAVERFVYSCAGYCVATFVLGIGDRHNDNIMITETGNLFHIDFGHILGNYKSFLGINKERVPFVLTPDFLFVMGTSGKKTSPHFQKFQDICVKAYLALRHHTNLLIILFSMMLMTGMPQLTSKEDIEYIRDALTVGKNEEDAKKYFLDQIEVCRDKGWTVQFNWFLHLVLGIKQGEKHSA
Sequence of PI3Kδ (p110δ/p85α) Recombinant Human Protein (O00329 whole entry): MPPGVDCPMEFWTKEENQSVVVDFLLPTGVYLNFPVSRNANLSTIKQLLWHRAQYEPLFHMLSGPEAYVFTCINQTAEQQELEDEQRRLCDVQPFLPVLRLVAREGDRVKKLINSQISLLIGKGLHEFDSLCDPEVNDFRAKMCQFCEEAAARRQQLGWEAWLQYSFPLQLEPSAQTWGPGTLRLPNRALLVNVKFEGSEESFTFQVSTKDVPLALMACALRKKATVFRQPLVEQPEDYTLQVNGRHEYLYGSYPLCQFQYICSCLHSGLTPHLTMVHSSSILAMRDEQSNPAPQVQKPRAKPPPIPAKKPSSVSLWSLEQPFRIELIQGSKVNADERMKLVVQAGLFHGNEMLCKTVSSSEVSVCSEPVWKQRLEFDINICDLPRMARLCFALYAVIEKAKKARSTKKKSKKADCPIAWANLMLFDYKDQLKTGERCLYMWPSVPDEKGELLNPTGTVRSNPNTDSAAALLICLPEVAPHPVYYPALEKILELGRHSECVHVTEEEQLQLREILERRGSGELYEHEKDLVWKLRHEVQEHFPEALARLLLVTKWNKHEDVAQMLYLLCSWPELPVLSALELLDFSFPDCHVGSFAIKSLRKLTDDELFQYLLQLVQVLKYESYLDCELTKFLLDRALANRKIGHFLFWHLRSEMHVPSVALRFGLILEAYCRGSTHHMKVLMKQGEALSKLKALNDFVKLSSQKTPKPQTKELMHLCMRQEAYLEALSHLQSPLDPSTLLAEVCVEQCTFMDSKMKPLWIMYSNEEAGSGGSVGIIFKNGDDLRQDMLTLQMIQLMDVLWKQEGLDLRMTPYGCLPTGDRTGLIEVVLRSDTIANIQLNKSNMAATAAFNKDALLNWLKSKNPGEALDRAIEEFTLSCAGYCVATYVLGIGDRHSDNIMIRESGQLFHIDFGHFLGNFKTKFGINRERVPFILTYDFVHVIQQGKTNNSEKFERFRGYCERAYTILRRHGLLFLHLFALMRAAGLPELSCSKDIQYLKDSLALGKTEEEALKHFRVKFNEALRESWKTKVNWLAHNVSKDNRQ
Sequence of PI3Kδ (p110δ/p85α) Recombinant Human Protein (P27986 whole entry partner): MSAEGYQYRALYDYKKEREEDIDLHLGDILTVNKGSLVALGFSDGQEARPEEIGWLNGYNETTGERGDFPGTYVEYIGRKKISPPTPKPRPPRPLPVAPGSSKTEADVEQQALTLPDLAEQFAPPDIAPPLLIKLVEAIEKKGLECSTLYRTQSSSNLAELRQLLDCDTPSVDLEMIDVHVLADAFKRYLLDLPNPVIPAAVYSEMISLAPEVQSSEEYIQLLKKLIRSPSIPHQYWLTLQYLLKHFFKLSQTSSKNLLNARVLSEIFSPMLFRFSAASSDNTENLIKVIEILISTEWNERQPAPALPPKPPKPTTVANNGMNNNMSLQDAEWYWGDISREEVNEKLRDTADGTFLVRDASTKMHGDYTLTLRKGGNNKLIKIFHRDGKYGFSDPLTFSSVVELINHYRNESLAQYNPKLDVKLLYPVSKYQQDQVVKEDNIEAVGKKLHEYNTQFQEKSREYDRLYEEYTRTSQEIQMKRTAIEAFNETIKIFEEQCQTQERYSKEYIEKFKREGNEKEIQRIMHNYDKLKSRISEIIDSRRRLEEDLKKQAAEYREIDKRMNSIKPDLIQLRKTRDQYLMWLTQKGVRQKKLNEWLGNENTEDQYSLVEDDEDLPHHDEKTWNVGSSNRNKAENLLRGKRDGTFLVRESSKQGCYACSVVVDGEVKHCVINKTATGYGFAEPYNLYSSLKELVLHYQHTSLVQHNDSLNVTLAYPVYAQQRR

Compound	IC50 [1]	IC50 [2]
COC(=O)c1ccc(Cn2cc(-c3ccnc(-c4ncc(-c5ccccc5)[nH]4)c3)cn2)cc1 [Example 32, Methyl 4-((4-(2-(5-phenyl-1H-imidazol-2-yl)pyridin-4-yl)-1H-pyrazol-1-yl)methyl)benzoate trifluoroacetate salt]	≤ 500 nM	> 500 nM
O=C(O)c1ccccc1Cn1cc(-c2ccnc(-c3ncc(-c4ccccc4)[nH]3)c2)cn1 [Example 33, 2-((4-(2-(5-Phenyl-1H-imidazol-2-yl)pyridin-4-yl)-1H-pyrazol-1-yl)methyl)benzoic acid trifluoroacetate salt]	> 500 nM	≤ 500 nM
O=C(O)c1cccc(Cn2cc(-c3ccnc(-c4ncc(-c5ccccc5)[nH]4)c3)cn2)c1 [Example 34, 3-((4-(2-(5-Phenyl-1H-imidazol-2-yl)pyridin-4-yl)-1H-pyrazol-1-yl)methyl)benzoic acid trifluoroacetate salt]	≤ 500 nM	≤ 500 nM
O=C(O)c1ccc(Cn2cc(-c3ccnc(-c4ncc(-c5ccccc5)[nH]4)c3)cn2)cc1 [Example 35, 4-((4-(2-(5-Phenyl-1H-imidazol-2-yl)pyridin-4-yl)-1H-pyrazol-1-yl)methyl)benzoic acid trifluoroacetate salt]	≤ 500 nM	≤ 500 nM
CN1CCN(c2cncc(-c3ccnc(-c4ncc(-c5ccccc5)[nH]4)c3)c2)CC1 [Example 37, 5-(4-Methylpiperazin-1-yl)-2′-(5-phenyl-1H-imidazol-2-yl)-3,4′-bipyridin trifluoroacetate salt]	> 500 nM	> 500 nM
c1ccc(-c2cnc(-c3cc(-c4ccc(N5CCOCC5)nc4)ccn3)[nH]2)cc1 [Example 41, 4-(2′-(5-Phenyl-1H-imidazol-2-yl)-3,4′-bipyridin-6-yl)morpholine trifluoroacetate salt]	> 500 nM	≤ 50 nM
CS(=O)(=O)n1cc(-c2ccnc(-c3ncc(-c4ccccc4)[nH]3)c2)cn1 [Example 44, 4-(1-(Methylsulfonyl)-1H-pyrazol-4-yl)-2-(5-phenyl-1H-imidazol-2-yl)pyridine trifluoroacetate salt]	> 500 nM	≤ 500 nM
CCS(=O)(=O)n1cc(-c2ccnc(-c3ncc(-c4ccccc4)[nH]3)c2)cn1 [Example 45, 4-(1-(Ethylsulfonyl)-1H-pyrazol-4-yl)-2-(5-phenyl-1H-imidazol-2-yl)pyridine trifluoroacetate salt]	≤ 500 nM	≤ 500 nM
c1ccc(-c2cnc(-c3cc(-c4cnn(C5CCOCC5)c4)ccn3)[nH]2)cc1 [Example 47, 2-(5-Phenyl-1H-imidazol-2-yl)-4-(1-(tetrahydro-2H-pyran-4-yl)-1H-pyrazol-4-yl)pyridine trifluoroacetate salt]	≤ 500 nM	≤ 50 nM
NC(=O)Cn1cc(-c2ccnc(-c3ncc(-c4ccccc4)[nH]3)c2)cn1 [Example 48, 2-(4-(2-(5-Phenyl-1H-imidazol-2-yl)pyridin-4-yl)-1H-pyrazol-1-yl)acetamide trifluoroacetate salt]	> 500 nM	> 500 nM
CN(C)C(=O)Cn1cc(-c2ccnc(-c3ncc(-c4ccccc4)[nH]3)c2)cn1 [Example 49, N,N-Dimethyl-2-(4-(2-(5-phenyl-1H-imidazol-2-yl)pyridin-4-yl)-1H-pyrazol-1-yl)acetamide trifluoroacetate salt]	> 500 nM	> 500 nM
O=C(Cn1cc(-c2ccnc(-c3ncc(-c4ccccc4)[nH]3)c2)cn1)N1CCCC1 [Example 50, 2-(4-(2-(5-Phenyl-1H-imidazol-2-yl)pyridin-4-yl)-1H-pyrazol-1-yl)-1-(pyrrolidin-1-yl)ethanone trifluoroacetate salt]	> 500 nM	> 500 nM
O=C(Cn1cc(-c2ccnc(-c3ncc(-c4ccccc4)[nH]3)c2)cn1)N1CCOCC1 [Example 51, 1-Morpholino-2-(4-(2-(5-phenyl-1H-imidazol-2-yl)pyridin-4-yl)-1H-pyrazol-1-yl)ethanone trifluoroacetate salt]	> 500 nM	> 500 nM
